Test results from patent US20080108665A1, “Use of N-substituted sulfoximines for control of invertebrate pests” (priority 2006, published 2008).

What was measured:
[1] = system: Green Peach Aphid (Myzus persicae); assay: Green peach aphid root uptake assay on pepper; assay type: in vivo; conditions: 3 days after infestation
Description: These assays were designed to evaluate the possibility of using the compounds identified in the foregoing examples for applications such as nursing trays, transplanting water and/or irrigation. Systemic activity against green peach aphid was evaluated in a root uptake assay. Bell peppers (Capsicum annum var. California Wonder) were used as test plants seeded and grown in rock wool plugs. Plants were grown to expanding 1st true leaf stage. The rock wool plugs containing individual plants were placed in 1-ounce cups and surrounded with white clean sand. Five plants were used for each treatment. A volume of 5 mL of the test solutions was applied to each cup (each plant). After insecticide application, the seedlings were infested with green peach aphids and held in a growth chamber (25° C., 50% RH, 16 hr light: 8 hr dark). Number of live aphids on each plant was counted at 3 days after infestation. Calculations for % Control were based on a corrected basis compared to the populations on the reference plants.
Corrected % Control=100*(X−Y)/X • where X=No. of live aphids on reference plants • Y=No. of live aphids on treated plants Assay 1: Compound (3) was tested at a dose range of 5-500 μg/plant. A stock solution of 1000 ppm (1 mg/mL) was made by dissolving technical test compound in acetone:ethanol (90:10). The highest test concentration (100 ppm, 500 μg/5 ml) was prepared by diluting 2.5 mL stock solution with 22.5 mL DI water. The lower test concentrations (25 mL) were similarly prepared by diluting aliquots of the stock solution with DI water. Reference plants received DI water only.
Assay 2: Compound (2) was tested at a dose range of 0.08-50 μg/plant. A stock solution of 1000 ppm was made by dissolving 2 mg of technical test compound in 2 mL acetone. The highest test concentration (10 ppm, 50 μg/5 ml) was prepared by diluting 0.32 mL stock solution with 1.6 mL acetone and 30.08 mL DI water, containing 6% acetone. Lower test concentrations were prepared by sequentially diluting 6.5 mL higher concentration (start from the 10 ppm test solution) with 26.0 ml acetone: DI water (6:94). The solvent/diluent system (6% acetone) was used as reference.

[2] = system: Cotton Aphid (Aphis gossypii); assay: Cotton aphid seed coating assay on squash; assay type: in vivo; conditions: 3 mg/seed, 10% SC formulation, counted 3 days after infestation
Description: Selected compounds of the invention were tested in assays designed to evaluate its systemic activity for control of cotton aphid through seed-coating prior to planting. The crop used in these assays was a hybrid squash (var. Pic-N-Pic). Test compound was formulated in a 10% SC formulation. Ten squash seeds were used for each treatment. Seeds were placed on waxed paper and a pipette was used to apply the original or diluted formulations to each seed. The air-dried, treated seeds were individually planted into 3 inch pots containing metro mix. The pots were placed on a California cart and moved into the greenhouse for sub watering only. At the specified number of days after planting, the plants were infested with approximately 40 wingless aphids. The infested plants were kept in an environmental holding room (23° C., 40% RH, 16 hr light: 8 hr dark) for three days before the number of live aphids was counted under a microscope. Calculations for % Control were based on a corrected basis compared to the populations on the reference plants germinated from seeds treated with the formulation blank.
Corrected % Control=100*(X−Y)/X • where X=No. of live aphids on reference plants • Y=No. of live aphids on treated plants Assay 1. Compounds (1) and (2) were tested at 3 mg/seed. The original 10% SC formulation was used. One half (15 ul) of the sample was spread onto one side of a seed. Once dried (approximately 1 hr), the seed was flipped over and the 2nd half of sample was spread over the other side. Fourteen and 25 days after planting, aphid infestations were conducted on the 1st and 2nd true leaves, respectively.
Assay 2. Compound (2) was tested at 0.1 and 1 mg/seed. For the 1 mg/seed treatment, the original 10% formulation was used. For the 0.1 mg/seed treatment, the 10% formulation were diluted 10× with DI water before application. One half (5 ul) of the sample was spread onto one side of a seed. Once dried (approximately 1 hr), the seed was flipped over and the 2nd half of sample was spread over the other side. Thirteen days after planting, the 1st leaf was infested.

[3] = system: sweet potato whitefly, Bemisia tabaci; conditions: more recently-collected strains of whitefly, late 1990s; cited from earlier work

N#CN=S1(=O)CCCC1Cc1ccc(Cl)nc1 (stereo not drawn) [Compound 3, 2-[(6-chloropyridin-3-yl)methyl]-1-oxidotetrahydro-1H-1-λ^4-thien-1-ylidenecyanamide]
% Control, root uptake systemic ([1]; 5 μg/plant): 10% | % Control, root uptake systemic ([1]; 50 μg/plant): 88% | % Control, root uptake systemic ([1]; 500 μg/plant): 100%

CS(=O)(Cc1ccc(Cl)nc1)=NC#N (stereo not drawn) [Compound 1, [(6-Chloropyridin-3-yl)methyl](methyl)oxido-λ^4-sulfanylidenecyanamide]
% Control, seed coating systemic 1st leaf, 14 days after planting [2]: 100% | % Control, seed coating systemic 2nd leaf, 25 days after planting [2]: 99.6%

O=[N+]([O-])NC1=NCCN1Cc1ccc(Cl)nc1 [imidacloprid, Imidacloprid]
resistance [3]: more than 100 fold
